In patent publication US20260259169A1, “BETA-LACTAMASE SUBSTRATE COMPOUNDS AND ELECTROCHEMICAL DETECTION METHODS USING THEM” (priority 2023, published 2026):
Like-named read-outs stand apart in the source and are kept apart here.

Tests used:
KPC = KPC (Klebsiella pneumoniae, UniProt Q9F663); test: Amperometric measurement of oxidation current with KPC in TPTZ buffer; format: biochemical; settings: for detection of the beta-lactamases (oxidation current): KPC concentrations detected: succinate buffer pH 5.5, KPC 239.4, 59.85, 9.975 and 4.985 ng/ml; for detection of the beta-lactamases (oxidation current): KPC concentrations detected / detection of the beta-lactamase concentration of 9.975 ng/mL / detection of the lowest tested concentration of KPC / detection of the highest concentration of KPC: 30 minutes at 37° C.; for detection of the beta-lactamase concentration of 9.975 ng/mL: KPC 9.975 ng/mL; for detection of the lowest tested concentration of KPC / detection of the highest concentration of KPC: 6.0 mM substrate; for detection of the lowest tested concentration of KPC: KPC 59.85 ng/ml; for detection of the highest concentration of KPC: KPC 239.4 ng/ml
Procedure: A medium comprising 1.2 mM of substrate in a succinate buffer of pH 5.5 was prepared for each of the 8 beta-lactamase substrate compounds (7 inventive ones and the HMRZ-86 reference one).
4 different samples to be analyzed were prepared, each comprising KPC as beta-lactamase in a standard 2,4,6-tri-2-pyridinyl-1,3,5-triazine (TPTZ) buffer but in different concentrations: 239.4, 59.85, 9.975 and 4.985 ng/ml (ng of KPC per mL of TPTZ buffer). The two first concentrations of KPC aim to determine the capacity of the derivative to detect the presence of beta-lactamase whereas the two lowest concentrations aim to address the limit of detection.
Each of the […] (in other words 32 combinations) and incubated for 30 minutes at 37° C. Next, an amperometric measurement was performed on all 32 of the incubated mediums, and the oxidation current was determined. The device used was a Metrohm Dropsens and the electrodes were Metrohm Dropsens SCPE 110 electrodes. The oxidation current is the maximum current value measured between 0.1 V and 0.5 V vs. Ag/AgCl.
To test the impact of the concentration of the beta-lactamase substrate compound on the possibility to detect beta-lactamases, a further medium comprising 2.4 mM of the beta-lactamase substrate compound with R being 2-nitro-4-cyanophenyl was prepared. […] The same four beta-lactamase concentrations as in Example 1 were tested (i.e. the same samples). The incubation and measurement were performed as in Example 1.
A medium comprising 6.0 mM of each substrate in a succinate buffer of pH 5.5 was prepared. 2 different samples to be analyzed were prepared, each comprising KPC as beta-lactamase type in a standard 2,4,6-tri-2-pyridinyl-1,3,5-triazine (TPTZ) buffer, but in different concentrations: 239.4 ng/ml and 59.85 ng/ml, respectively (ng of KPC per mL of TPTZ buffer). Each of the […] was added to each of the 2 mediums (in other words 6 combinations) and incubated for 30 minutes at 37° C. Next, an amperometric measurement was performed on all 6 of the incubated mediums, and the oxidation current was determined. The equipment used was the same as that of Example 1.

[1] = system: bacteria strains that produce VIM type; test: Amperometric detection in blood culture; format: cell-based; settings: 2.4 mM versus HMRZ-86 1.2 mM
Procedure: (§1) The possibility of the beta-lactamase substrate compounds to detect bacteria strains producing different beta-lactamases was tested for the reference HMRZ-86 of example 1 (at 1.2 mM) and the beta-lactamase substrate compound with R being 2-nitro-4-cyano of Example 1 (at 2.4 mM). […] Consequently, amperometric voltammetry of the negative control with ATCC should give an oxidation current of 0 nA for the measurement to be valid.
The beta-lactamase with group β being CF3 (6.0 mM), as well as the reference HMRZ-86 (1.2 mM) were also tested with blood cultures comprising bacteria strains producing the carbapenemase KPC type, the metallo-beta-lactamase VIM type and the metallo-beta-lactamase NDM type, as well as a blood culture comprising no bacteria strains producing beta-lactamases (negative control ATCC).

[2] = system: bacteria strains that produce KPC/OXA-48; test: Amperometric detection in blood culture; format: cell-based; settings: 2.4 mM versus HMRZ-86 1.2 mM
Procedure: as §1

[3] = NMR stability study in relation to a 22 mM succinate buffer reference; format: physicochemical
Procedure: (§2) The stability of the beta-lactamase substrate compounds over time at different temperatures was tested the reference HMRZ-86 of example 1 (at 1.2 mM) and the beta-lactamase substrate compound with R being 2-nitro-4-cyano of Example 1 (at 2.4 mM).
The stability of both beta-lactamase substrate compounds was also tested in relation to a 22 mM succinate buffer reference. […] Contrary to the dimethylformamide (DMF) reference, the degradation in relation to the succinate buffer was similar for both substrate compounds, with the first degradation starting after 2 weeks at both temperatures.

[4] = NMR stability study in relation to a dimethylformamide (DMF) reference; format: physicochemical
Procedure: More particularly, when the degradation is determined by means of NMR measurements, a first sample comprising the beta-lactamase substrate compound according to the present disclosure and a second sample comprising the reference, e.g. DMF, are heated or cooled to a predefined temperature, after which the NMR measurement is performed on both samples (measurement at time=0). The same measurement is repeated on the samples after a predefined time (time=x), while their temperature is kept constant at the predefined temperature from time=0 to time=x. The difference of the integration of NMR measurement signals of both samples is determined by comparing between time=0 and time=x, thereby allowing to define the degree (percentage) of degradation of the beta-lactamase substrate compound at time=x.
as §2
The stability was tested by a NMR stability study. The degradation was measured by measuring the evolution of the integration of NMR measurement signals of the molecule in relation to a dimethylformamide (DMF) reference. The stability of the beta-lactamase substrate compound is expressed by the percentage of degradation in function of time.
The stability of all 3 beta-lactamase substrate compounds (R being 4-cyanophenyl, group β being H, CH3 and CF3, respectively), as well as the beta-lactamase having the same group R and a group β according to formula II was tested at 20° C. in DMF as reference.

OXA-48 = test: Amperometric detection of beta-lactamase type producing bacteria strains; format: cell-based; settings: 6.0 mM substrate, HMRZ-86 1.2 mM; qualitative
Procedure: (§3) The possibility to detect different beta-lactamase type producing bacteria strains was also tested. As reference, a reference medium comprising 1.2 mM beta-lactamase substrate compound HMRZ-86 was prepared as well.

OXA-58 = test: as above; format: cell-based; settings: 6.0 mM substrate, HMRZ-86 1.2 mM; qualitative
Procedure: as §3

OXA-40 = test: as above; format: cell-based; settings: 6.0 mM substrate, HMRZ-86 1.2 mM; qualitative
Procedure: as §3

CTXM = test: as above; format: cell-based; settings: 6.0 mM substrate, HMRZ-86 1.2 mM; qualitative
Procedure: as §3

## CC(C)(ON=C(C(=O)NC1C(=O)N2C(C(=O)O)=C(C=Cc3ccc(C#N)cc3C#N)CSC12)c1csc(N)n1)C(=O)O (stereo not drawn) [2,4-dicyano]
KPC; 1.2 mM substrate
  detection of the beta-lactamases (oxidation current): KPC concentrations detected: only the 2 highest concentrations were detected

## CC(C)(ON=C(C(=O)NC1C(=O)N2C(C(=O)O)=C(C=Cc3ccc(C#N)cc3[N+](=O)[O-])CSC12)c1csc(N)n1)C(=O)O (stereo not drawn) [2-nitro-4-cyano]
[1]
  oxidation current compared with HMRZ-86: significantly higher
[2]
  oxidation current compared with HMRZ-86: significantly higher
KPC; 1.2 mM substrate
  detection of the beta-lactamases (oxidation current): KPC concentrations detected: all 4 concentrations
KPC; 2.4 mM substrate, 4 KPC concentrations
  oxidation current compared with 1.2 mM HMRZ-86 reference: in line with these of the 1.2 mM HMRZ-86 reference
KPC; 2.4 mM substrate, KPC 239.4 and 59.85 ng/ml
  oxidation current compared with 1.2 mM HMRZ-86 reference, 2 highest beta-lactamase concentrations: higher than the reference
KPC; 2.4 mM versus 1.2 mM substrate, 4 KPC concentrations
  oxidation current on increasing the substrate concentration: significantly increases the oxidation current
[3]; 4° C.
  time at which the first degradation starts: 2 weeks
[3]; 20° C.
  time at which the first degradation starts: 2 weeks

## CC(C)(ON=C(C(=O)NC1C(=O)N2C(C(=O)O)=C(C=Cc3ccc([N+](=O)[O-])c([N+](=O)[O-])c3)CSC12)c1csc(N)n1)C(=O)O (stereo not drawn) [3,4-dinitrophenyl]
KPC; 1.2 mM substrate
  detection of the beta-lactamase concentration of 9.975 ng/mL: could detect

## CC(C)(ON=C(C(=O)NC1C(=O)N2C(C(=O)O)=C(C=Cc3cc([N+](=O)[O-])cc([N+](=O)[O-])c3)CSC12)c1csc(N)n1)C(=O)O (stereo not drawn) [3,5-dinitrophenyl]
KPC; 1.2 mM substrate
  detection of the beta-lactamase concentration of 9.975 ng/mL: this was not the case

## CC(C)(ON=C(C(=O)NC1C(=O)N2C(C(=O)O)=C(C=Cc3ccc(C#N)cc3)CSC12)c1csc(N)n1)C(=O)O (stereo not drawn) [4-cyanophenyl]
[4]; 20° C., up to 26 weeks, DMF reference
  degradation: no signs of degradation
KPC; 1.2 mM substrate, 4 KPC concentrations, FIG. 2
  oxidation current, compared among R groups with a single moiety at the para-position: highest oxidation currents

## CC(=O)NC1C(=O)N2C(C(=O)O)=C(C=Cc3ccc(C#N)cc3)CSC12 (stereo not drawn) [CH3]
OXA-48
  detection (oxidation current): detect OXA-48 type only
OXA-58
  detection (oxidation current): detect OXA-48 type only
OXA-40
  detection (oxidation current): detect OXA-48 type only
CTXM
  detection (oxidation current): detect OXA-48 type only
[4]; 20° C., DMF reference, up to 26 weeks
  time of first signs of degradation: 1 weeks
KPC
  detection of the lowest tested concentration of KPC: only the “H” and “CF3” groups are capable to detect the lowest tested concentration
  detection of the highest concentration of KPC: capable to detect

## N#Cc1ccc(C=CC2=C(C(=O)O)N3C(=O)C(NC=O)C3SC2)cc1 (stereo not drawn) [H]
OXA-48
  detection (oxidation current): capable of detecting
OXA-58
  detection (oxidation current): capable of detecting
OXA-40
  detection (oxidation current): capable of detecting
CTXM
  detection (oxidation current): capable of detecting
[4]
  time of first signs of degradation: 13 weeks
KPC
  detection of the lowest tested concentration of KPC: capable to detect
  detection of the highest concentration of KPC: capable to detect
